Measured values published in patent US10550094B2, “Compounds having antioxidant activity against free radicals and anti-inflammatory activity, and corresponding pharmaceutical or cosmetic compositions for skin care” (GIULIANI S.P.A., priority 2015, dated 2020).

Tests used:
TNF-α = assay: Anti-inflammatory activity: TNF-α gene expression by qRT-PCR in LPS-treated keratinocytes; assay type: cell-based, human; details: for TNF-α (relative gene expression): 10 μg/ml LPS, NCTC 2544; for Comparison vs LFS (%): TNF-α vs Control + LPS
Method: (§1) The immortalized line of human keratinocytes NCTC2544 is used (Perry V. P. et al., 1957), cultured in sterile flasks ([…]), incubated at 37° C. in a humid atmosphere at 5% CO2 in RPMI culture medium added with bovine fetal serum (FBS), 2 mm glutamine, 1% non-essential amino acids, in the presence of 1% penicillin and streptomycin. The 1:3 split is done every 2 days upon achieving the monolayer by washing with 1×PBS (phosphate buffer without Ca^2+ and Mg^2+) and detachment of cells with a trypsin-EDTA solution at 37° C. for 2 minutes. The cells were kept in culture in 25 cm^3 sterile flasks and incubated at 37° C. in a humid atmosphere at 5% CO2.
Negative control: untreated cells in RPMI medium added to 2.5% fetal bovine serum (FBS), 1% non-essential amino acids (NEAA), 1% of a penicillin and streptomycin mixture (Pen-Strep Mix), and kept in (12 well) 25 cm^2 culture plates at 37° C. and 5% CO2.
Positive control: cells in RPMI medium added to 2.5% fetal bovine serum (FBS), 1% non-essential amino acids (NEAA), 1% of a penicillin and streptomycin mixture (Pen-Strep Mix) and 10 μg/mL LPS (lipopolysaccharide) and kept in ([…]) 25 cm^2 culture plates at 37° C. and 5% CO2 (in the dark).
Study of the Anti-inflammatory Activity-NCTC 2544
The gene expression of the TNF-α inflammation marker was evaluated by relative quantitative RT-PCR (quantitative reverse transcription-polymerase chain reaction-qRT-PCR).
This assay involved three sequential steps: • extraction of total RNA; • retrotranscription in cDNA; • qRT-PCR.
Human keratinocytes NCTC 2544 were seeded in 12-well plates at the density of […] cells/well and incubated until reaching about 80% confluence.
Then, the cells were incubated for 16 and 24 hours with the compounds of the invention to be tested and the respective controls at the following concentrations: 13.5 μM and 27 μM, and admixed (in the well) with 10 μg/ml LPS.
The dilutions were prepared starting from 1000× stock in DMSO, sterile-filtered and using RPMI medium added to 2.5% fetal bovine serum (FBS), 1% non-essential amino acids (NEAA), 1% of a penicillin and streptomycin mixture (Pen-Strep Mix).
Cells kept in the culture medium alone (RPMI 2.5% FBS) were used as a negative control.
Cells in the culture medium alone (RPMI 2.5% FBS) and treated only with 10 μg/mL LPS were used as a positive control.
After incubation, the RNA was extracted. Total RNA was extracted from NCTC 2544 cells using the commercial kit Ribospin™ (GeneAllBiotechnology Co., LTD).
At the end of incubation with the active compounds of the invention, cells were washed with PBS (1×) and finally subjected to RNA extraction procedure. At the end of the extraction, using a spectrophotometer (Jenway UV/VIS MOD: 6715, BS-6715B0), concentrations were calculated in μg/mL of total RNA extracted at a wavelength of 260 nm.
For RT-PCR amplification, the TaqMan® probe (AppliedBiosystems) method was used. The following TYaqMan probe was used: Hs00174128_m1 (TNF-α). GAPDH: Hs99999905_m1 was used as control gene (housekeeping).
The data obtained were analyzed according to the method of 2-ΔΔCt and so it was possible to calculate the relative values of expression of the gene of interest, normalized compared to the housekeeping gene and calibrated on the control sample (untreated cells): ΔCt=ΔCttarget-housekeeping (control)−ΔCttarget-housekeeping (treated cells)
The 2^−ΔΔCt was calculated assuming an amplification efficiency of 100%.

[1] = test system: human keratinocytes NCTC2544; assay: MTT assay with induced oxidative stress (H2O2); assay type: cell-based; details: 16 h pretreatment, then 1 mM H2O2, NCTC2544
Method: as §1
(§2) Negative control: untreated cells in RPMI medium added to 2.5% fetal bovine serum (FBS), 1% non-essential amino acids (NEAA), 1% of a penicillin and streptomycin mixture (Pen-Strep Mix), and kept in (96 well) 25 cm^2 culture plates at 37° C. and 5% CO2 (in the dark).
as §2, with “Positive” for “Negative”, “control:” for “control: untreated”, “cells treated for 2 h with 1 mM hydrogen peroxide” for “cells”
MTT with Induced Oxidative Stress-NCTC 2544
Through this method it is possible to study the protective effects of such compounds on cells then subjected to oxidative stress. The induction of oxidative stress is carried out by incubation with hydrogen peroxide, an agent inducing the production of oxidative damage in cells through the formation of ROS. Any protective effects can be determined through the evaluation of the cell viability post oxidative stress of cells pretreated/pre-exposed to the active compounds to be tested, compared to cells subjected to the same oxidative stress. A greater cell viability will correspond to a protective effect of the compounds tested.
The assay was conducted in accordance with the method described by Coda and collaborators (Coda et al., 2012), with some changes. Human keratinocytes NCTC2544 were seeded in a 96-well plate at the density of 5*10^4 cells/well and incubated at 37° C. until reaching about 80% confluence.
Then, the cells were incubated for 16 hours with the active compounds to be tested and the respective controls at the following concentrations: 13.5 μM and 27 μM. The dilutions were prepared starting from 1000× stock in DMSO, sterile-filtered and using RPMI medium added to 2.5% fetal bovine serum (FBS), 1% non-essential amino acids (NEAA), 1% of a penicillin and streptomycin mixture (Pen-Strep Mix). Cells treated with H2O2 1 mM were used as a positive control; cells kept in culture medium alone (RPMI 2.5% FCS) were used instead as a negative control. After 16 hours of pretreatment, the cells were washed with PBS 1× and incubated for 90 minutes with a […] H2O2 solution (Sigma-Aldrich, St. Louis, Mo., USA) in serum-free medium, in the dark, at 37° C. and 5% CO2.
After the step of induction of the oxidative stress, the cell viability of the samples of the above compounds of the invention was evaluated in accordance with the method described by Mosmann T. Rapid colorimetric assay for cellular growth and survival: application to proliferation and cytotoxicity assays. J Immunol Methods. 1983 Dec. 16; 65(1-2):55-63.
The data were expressed as percentage of cell viability compared with control cells (ctr) not stressed, according to the following formula: % cell viability/ctr=(Abs sample/Abs ctr)·100
All the assays were performed at least two times in duplicate.

Row | SMILES | TNF-α (relative gene expression) (TNF-α; 13.5 μM, 16 h) | Comparison vs LFS (%) (TNF-α; 13.5 μM, 16 h) | TNF-α (relative gene expression) (TNF-α; 13.5 μM, 24 h) | Comparison vs LFS (%) (TNF-α; 13.5 μM, 24 h) | TNF-α (relative gene expression) (TNF-α; 27 μM, 16 h) | Comparison vs LFS (%) (TNF-α; 27 μM, 16 h) | TNF-α (relative gene expression) (TNF-α; 27 μM, 24 h) | Comparison vs LFS (%) (TNF-α; 27 μM, 24 h) | anti-inflammatory activity (TNF-α), assessment in words (TNF-α; higher dose) | % protection ([1]; 13.5 μM) | % protection ([1]; 27 μM) | anti-inflammatory activity (TNF-α), assessment in words (TNF-α; lower dose) | % protection ([1]; 27 μM, listed as tetracetyl sorbityl furfural) | % protection ([1]; 13.5 μM, listed as xylitil furfural)
1 | OCC(O)C1OC(c2ccccc2)OC(CO)C1O (stereo not shown) [Sorbityl benzal, sorbityl benzal] | 0.39 | 87.93% | 0.71 | 96.50% | 0.08 | 97.62% | 0.01 | 99.97% | particularly significant | 11.673% | 20.439% |  |  | 
2 | COc1cc(C2OC(CO)C(O)C(C(O)CO)O2)ccc1O (stereo not shown) [Sorbityl vanillinal, sorbityl vanillinal] | 0.04 | 98.64% | 0.09 | 99.57% | 0.15 | 95.44% | 0.21 | 98.95% |  | 11.320% | 22.766% | remarkable |  | 
3 | O=C(OCC1OC(c2ccco2)OC(C(COC(=O)c2ccccc2)OC(=O)c2ccccc2)C1OC(=O)c1ccccc1)c1ccccc1 (stereo not shown) [Tetrabenzoyl sorbityl furfural, tetrabenzoyl sorbityl furfural] | 0.63 | 80.28% | 2.51 | 87.69% | 0.45 | 85.81% | 0.28 | 98.63% |  | 36.035% | 8.725% |  |  | 
4 | CC(=O)OCC1OC(c2ccco2)OC(C(COC(C)=O)OC(C)=O)C1OC(C)=O (stereo not shown) [Tetracetyl sorbityl furfural, tetracetyl sorbityl furfural] | 0.35 | 89.06% | 5.75 | 71.78% | 0.28 | 91.18% | 0.12 | 99.39% |  | 34.385% | 49.201% |  | remarkable | 
5 | OCC1OC(c2ccco2)OC(CO)C1O (stereo not shown) [Xylitil furfural, xylitil furfural] | 0.03 | 98.96% | 0.03 | 99.85% | 0.18 | 94.37% | 0.18 | 99.10% |  | 59.554% | 33.651% | remarkable |  | remarkable
